Legend:
Format in all cases: biochemical
Human mTOR = molecular target: T1, Human mTOR (Homo sapiens, UniProt P42345); assay: mTOR kinase assay (DELFIA format, purified enzyme); details: His6-S6K substrate, read-out: TOR Kinase IC50
T1 construct: FLAG
Method: mTOR Kinase Assay Methods
Human mTOR assays (See Toral-Barza, et al. Biochem Biophys. Res. Commun. 2005 Jun. 24; 332(1):304-10) with purified enzyme are performed in 96-well plates by DELFIA format as follows. Enzymes are first diluted in kinase assay buffer (10 mM HEPES (pH 7.4), 50 mM NaCl, 50 mM β-glycerophosphate, 10 mM MnCl2, 0.5 mM DTT, 0.25 mM microcystin LR, and […]). To each well, 12 μL of the diluted enzyme is mixed briefly with 0.5 μL test inhibitor or control vehicle dimethylsulfoxide (DMSO). The kinase reaction is initiated by adding 12.5 μL kinase assay buffer containing ATP and His6-S6K to give a final reaction volume of 25 μL containing 800 ng/mL FLAG-TOR, […] and […]. The reaction plate is incubated for 2 hours (linear at 1-6 hours) at room temperature with gentle shaking and then terminated by adding 25 μL Stop buffer (20 mM HEPES (pH 7.4), 20 mM EDTA, 20 mM EGTA). The DELFIA detection of the phosphorylated (Thr-389) His6-S6K is performed at room temperature using a monoclonal anti-P(T389)-p70S6K antibody (1A5, Cell Signaling) labeled with Europium-N1-ITC (Eu) (10.4 Eu per antibody, PerkinElmer). The DELFIA Assay buffer and Enhancement solution can be purchased from PerkinElmer. 45 μL of the terminated kinase reaction mixture is transferred to a MaxiSorp plate (Nunc) containing 55 μL PBS. The His6-S6K is allowed to attach for 2 hours after which the wells are aspirated and washed once with PBS. 100 μL of DELFIA Assay buffer with 40 ng/mL Eu-P(T389)-S6K antibody is added. The antibody binding is continued for 1 hour with gentle agitation. The wells are then aspirated and washed 4 times with PBS containing 0.05% Tween-20 (PBST). 100 μL of DELFIA Enhancement solution is added to each well and the plates are read in a PerkinElmer Victor model plate reader. Data obtained is used to calculate enzymatic activity and enzyme inhibition by potential inhibitors.

PI3 Kinase α = PI3 Kinase α (Homo sapiens, UniProt P42336); assay: Fluorescence polarization assay for PI3K
PI3 Kinase α, sequence (P42336 whole entry): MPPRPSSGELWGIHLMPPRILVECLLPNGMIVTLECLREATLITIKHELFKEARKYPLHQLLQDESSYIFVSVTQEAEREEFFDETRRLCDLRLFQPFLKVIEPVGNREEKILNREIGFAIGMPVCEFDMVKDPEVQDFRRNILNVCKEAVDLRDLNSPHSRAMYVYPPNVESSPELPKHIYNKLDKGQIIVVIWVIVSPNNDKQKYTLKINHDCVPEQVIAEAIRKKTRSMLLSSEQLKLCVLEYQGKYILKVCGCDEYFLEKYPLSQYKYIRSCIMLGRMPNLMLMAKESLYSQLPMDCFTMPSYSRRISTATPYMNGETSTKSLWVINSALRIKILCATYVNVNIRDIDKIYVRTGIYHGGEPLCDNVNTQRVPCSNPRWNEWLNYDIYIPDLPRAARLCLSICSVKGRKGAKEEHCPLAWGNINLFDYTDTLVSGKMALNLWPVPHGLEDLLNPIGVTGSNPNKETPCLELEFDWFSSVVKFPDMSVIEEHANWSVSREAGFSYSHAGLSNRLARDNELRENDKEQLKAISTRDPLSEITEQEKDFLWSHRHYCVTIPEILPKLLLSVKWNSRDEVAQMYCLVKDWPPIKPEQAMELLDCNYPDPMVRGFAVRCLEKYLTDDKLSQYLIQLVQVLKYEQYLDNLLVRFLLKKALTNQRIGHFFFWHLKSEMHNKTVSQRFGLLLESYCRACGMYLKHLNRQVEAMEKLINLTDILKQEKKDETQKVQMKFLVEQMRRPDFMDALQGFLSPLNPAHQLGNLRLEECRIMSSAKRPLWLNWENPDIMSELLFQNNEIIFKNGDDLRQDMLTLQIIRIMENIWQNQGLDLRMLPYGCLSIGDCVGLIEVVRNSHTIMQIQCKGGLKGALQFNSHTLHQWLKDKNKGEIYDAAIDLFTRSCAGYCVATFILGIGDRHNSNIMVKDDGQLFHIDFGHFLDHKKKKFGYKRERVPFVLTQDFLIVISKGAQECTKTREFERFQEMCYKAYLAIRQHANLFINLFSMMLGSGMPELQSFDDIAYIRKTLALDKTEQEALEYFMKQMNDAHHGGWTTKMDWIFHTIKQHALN
PI3 Kinase α, sequence (P27986 whole entry partner): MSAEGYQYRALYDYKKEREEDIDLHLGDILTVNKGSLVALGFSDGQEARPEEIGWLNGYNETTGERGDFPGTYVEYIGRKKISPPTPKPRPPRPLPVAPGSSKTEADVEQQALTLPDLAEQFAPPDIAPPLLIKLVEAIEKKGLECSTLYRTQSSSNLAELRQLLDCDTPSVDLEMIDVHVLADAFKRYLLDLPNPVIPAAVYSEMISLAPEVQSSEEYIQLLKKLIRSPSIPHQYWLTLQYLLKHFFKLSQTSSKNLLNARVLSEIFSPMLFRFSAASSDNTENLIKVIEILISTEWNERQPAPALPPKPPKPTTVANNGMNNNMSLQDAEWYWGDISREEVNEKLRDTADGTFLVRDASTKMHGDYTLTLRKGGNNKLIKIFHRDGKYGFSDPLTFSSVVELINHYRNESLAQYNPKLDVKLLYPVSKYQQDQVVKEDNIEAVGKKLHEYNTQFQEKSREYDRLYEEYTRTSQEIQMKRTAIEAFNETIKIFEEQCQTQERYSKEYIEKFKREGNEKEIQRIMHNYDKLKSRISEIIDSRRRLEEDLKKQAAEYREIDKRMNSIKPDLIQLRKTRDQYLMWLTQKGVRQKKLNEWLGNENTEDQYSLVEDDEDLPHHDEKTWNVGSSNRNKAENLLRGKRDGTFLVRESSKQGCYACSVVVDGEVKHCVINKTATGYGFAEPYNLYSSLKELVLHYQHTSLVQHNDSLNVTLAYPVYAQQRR
Method: (§1) Fluorescence Polarization Assay for PI3K
(§2) This assay is used to determine the IC50 of compounds of the present invention as it identifies inhibitors of PI3 kinase by measuring inhibition.
(§3) Reaction Buffer: 20 mM HEPES, pH 7.5, 2 mM MgCl2, 0.05% CHAPS; and 0.01% BME (added fresh) Stop/Detection Buffer: 100 mM HEPES, pH 7.5, 4 mM EDTA, 0.05% CHAPS; ATP 20 mM in water; PIP2 (diC8, cat# P-4508) 1 mM in water (MW=856.5); GST-GRP 1.75 mg/mL or 1.4 mg/mL in 10% glycerol; Red detector (TAMRA) 2.5 μM; Plate: Nunc 384 well black polypropylene fluorescence plate.
(§4) The assay is run by placing 5 μL of diluted enzyme per well, then 5 μL of diluted compound (or 9.5 μL enzyme then 0.5 μL compound in DMSO) is added and mixed. Then, 10 μL substrate is added to start the reaction. The samples are incubated 30-60 minutes, then the reaction is stopped by adding 20 μL stop/detector mix. PI3K is diluted with reaction buffer (e.g., 5 μL or 7.5 μL PI3K into 620 μL reaction buffer), and 5 μL of diluted enzyme is used per well. 5 μL reaction buffer or drug diluted in buffer (e.g., 4 μL/100 so final DMSO is 1% in reaction) is added to each. Pipetting up and down mixes the samples. Alternatively, the enzyme can be diluted to 1215 μL. In this case 9.8 μL is added per well and 0.2 μL compound is added in DMSO. To prepare 1 mL of substrate solution, 955 μL reaction buffer, 40 μL PIP2, and 2.5 μL ATP are mixed. 10 μL of substrate is added to each well to start the reaction.
(§5) Stop/detector mix is prepared by mixing 4 μL Red detector and 1.6 μL or 2.0 μL GST-GRP with 1 mL Stop buffer, which results in 10 nM probe and 70 nM GST-GRP). 20 μL of the stop/detector mix is added to each well to stop the reaction. The plates are read after 30-90 minutes keeping the red probe solutions dark. For the zero time point, stop/detector mix is added to the enzyme just before adding substrate. For an extra control, stop/detector mix is added to buffer (no enzyme) and substrate or to just buffer (no substrate). […] The recommended reaction has 0.06 μL per 20 μL (0.015 μg/20 μL) or 0.01125 μg/15 μL or 0.75 μg/mL. Plates are read on machines with filters for Tamra. The units are mP with no enzyme controls reading app 190-220 mP units. Fully active enzyme reduces fluorescence polarization down to 70-100 mP after 30 minutes. An active compound raises the mP values halfway to control or to 120-150 mP units.

PI3 Kinase γ = PI3 Kinase γ (Homo sapiens, UniProt P48736); assay: Fluorescence polarization assay for PI3K
PI3 Kinase γ, sequence (P48736 whole entry): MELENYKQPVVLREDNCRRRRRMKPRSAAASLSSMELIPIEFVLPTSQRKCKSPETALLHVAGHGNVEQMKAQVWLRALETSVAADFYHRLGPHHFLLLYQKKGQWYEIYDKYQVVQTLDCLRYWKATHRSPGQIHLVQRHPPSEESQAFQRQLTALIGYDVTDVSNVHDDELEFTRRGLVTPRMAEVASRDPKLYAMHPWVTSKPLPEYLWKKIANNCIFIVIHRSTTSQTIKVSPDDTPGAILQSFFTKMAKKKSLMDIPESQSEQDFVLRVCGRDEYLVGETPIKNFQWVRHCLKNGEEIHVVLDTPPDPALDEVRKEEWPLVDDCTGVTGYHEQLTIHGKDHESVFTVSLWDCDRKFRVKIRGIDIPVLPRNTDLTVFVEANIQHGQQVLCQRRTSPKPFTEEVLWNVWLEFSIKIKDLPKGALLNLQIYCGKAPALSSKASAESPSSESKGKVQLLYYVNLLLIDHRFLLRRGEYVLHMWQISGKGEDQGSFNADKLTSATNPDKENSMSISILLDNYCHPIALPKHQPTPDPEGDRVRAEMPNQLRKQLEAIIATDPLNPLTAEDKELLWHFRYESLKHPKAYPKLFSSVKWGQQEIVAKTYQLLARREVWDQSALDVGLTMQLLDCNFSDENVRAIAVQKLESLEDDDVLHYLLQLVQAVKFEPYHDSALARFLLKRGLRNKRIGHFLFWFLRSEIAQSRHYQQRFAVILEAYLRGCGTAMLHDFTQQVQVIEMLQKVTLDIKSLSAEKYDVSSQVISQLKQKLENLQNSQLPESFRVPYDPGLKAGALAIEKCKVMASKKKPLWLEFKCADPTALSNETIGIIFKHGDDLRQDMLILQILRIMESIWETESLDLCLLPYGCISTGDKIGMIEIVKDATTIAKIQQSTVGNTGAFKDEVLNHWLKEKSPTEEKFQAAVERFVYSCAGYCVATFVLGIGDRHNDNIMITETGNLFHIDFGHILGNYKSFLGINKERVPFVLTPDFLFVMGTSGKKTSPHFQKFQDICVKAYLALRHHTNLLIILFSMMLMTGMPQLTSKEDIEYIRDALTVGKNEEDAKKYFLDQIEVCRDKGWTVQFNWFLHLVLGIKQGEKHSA
Method: as §1, §2, §3, §4, §5

SMILES | IC50 (Human mTOR) [nM] | IC50 (PI3 Kinase α) [nM] | IC50 (PI3 Kinase γ) [nM]
Oc1cncc(-c2nc(C3=CCOCC3)c3ncn(C4CCN(Cc5ccc(Br)nc5)CC4)c3n2)c1 [Compound 30, 5-[9-{1-[(6-bromopyridin-3-yl)methyl]piperidin-4-yl}-6-(3,6-dihydro-2H-pyran-4-yl)-9H-purin-2-yl]pyridin-3-ol] | 2000 | 275 | 2470
COc1ccc(CN2CCC(n3cnc4c(C5=CCOCC5)nc(-c5cncc(O)c5)nc43)CC2)cn1 [Compound 32, 5-[6-(3,6-dihydro-2H-pyran-4-yl)-9-{1-[(6-methoxypyridin-3-yl)methyl]piperidin-4-yl}-9H-purin-2-yl]pyridin-3-ol] | 1700 | 858 | 2530
Oc1cncc(-c2nc(C3=CCOCC3)c3ncn(C4CCN(Cc5ccc(Cl)nc5)CC4)c3n2)c1 [Compound 37, 5-[9-{1-[(6-chloropyridin-3-yl)methyl]piperidin-4-yl}-6-(3,6-dihydro-2H-pyran-4-yl)-9H-purin-2-yl]pyridin-3-ol] | 1600 | 437 | 719
CNC(=O)Nc1ccc(-c2nc(C3=CCOCC3)c3ncn(C4CCN(Cc5ccc[nH]5)CC4)c3n2)cc1 [Compound 41, 1-(4-{6-(3,6-dihydro-2H-pyran-4-yl)-9-[1-(1H-pyrrol-2-ylmethyl)piperidin-4-yl]-9H-purin-2-yl}phenyl)-3-methylurea] | 130 | 543 | 3110
OCc1cccc(-c2nc(C3=CCOCC3)c3ncn(C4CCNCC4)c3n2)c1 [Compound 43, {3-[6-(3,6-dihydro-2H-pyran-4-yl)-9-piperidin-4-yl-9H-purin-2-yl]phenyl}methanol] | > 4000 | 574 | 2060
Oc1cccc(-c2nc(C3=CCOCC3)c3ncn(CCN4CCCCC4)c3n2)c1 [Compound 46, 3-[6-(3,6-dihydro-2H-pyran-4-yl)-9-(2-piperidin-1-ylethyl)-9H-purin-2-yl]phenol] | > 4000 | 1350 | 15000
Oc1cccc(-c2nc(C3=CCOCC3)c3nnn(C4CCN(Cc5ccccc5)CC4)c3n2)c1 [Compound 47, 3-[3-(1-benzylpiperidin-4-yl)-7-(3,6-dihydro-2H-pyran-4-yl)-3H-[1,2,3]triazolo[4,5-d]pyrimidin-5-yl]phenol] | 230 | 998 | 1500
Oc1cccc(-c2nc(C3=CCOCC3)c3nn[nH]c3n2)c1 [Compound 48, 3-[7-(3,6-dihydro-2H-pyran-4-yl)-3H-[1,2,3]triazolo[4,5-d]pyrimidin-5-yl]phenol] | 32 | 93 | 257
OCc1cccc(-c2nc(C3=CCOCC3)c3nn[nH]c3n2)c1 [Compound 49, {3-[7-(3,6-dihydro-2H-pyran-4-yl)-3H-[1,2,3]triazolo[4,5-d]pyrimidin-5-yl]phenyl}methanol] | 340 | 390 | 1040
Oc1cncc(-c2nc(C3=CCOCC3)c3nn[nH]c3n2)c1 [Compound 50, 5-[7-(3,6-dihydro-2H-pyran-4-yl)-3H-[1,2,3]triazolo[4,5-d]pyrimidin-5-yl]pyridin-3-ol] | 360 | 78 | 100

Results, then the compound that gave them:

IC50 (Human mTOR) [nM] | IC50 (PI3 Kinase α) [nM] | IC50 (PI3 Kinase γ) [nM] | SMILES
2400 | 525 | 2490 | Oc1cncc(-c2nc(C3=CCOCC3)c3ncn(C4CCN(Cc5cccnc5)CC4)c3n2)c1 [Compound 29, 5-{6-(3,6-dihydro-2H-pyran-4-yl)-9-[1-(pyridin-3-ylmethyl)piperidin-4-yl]-9H-purin-2-yl}pyridin-3-ol]
1600 | 619 | 2990 | Oc1cncc(-c2nc(C3=CCOCC3)c3ncn(C4CCN(Cc5ccccn5)CC4)c3n2)c1 [Compound 31, 5-{6-(3,6-dihydro-2H-pyran-4-yl)-9-[1-(pyridin-2-ylmethyl)piperidin-4-yl]-9H-purin-2-yl}pyridin-3-ol]
12000 | 265 | 385 | Oc1cncc(-c2nc(C3=CCOCC3)c3ncn(C4CCN(Cc5c[nH]c6ccc(F)cc56)CC4)c3n2)c1 [Compound 33, 5-[6-(3,6-dihydro-2H-pyran-4-yl)-9-{1-[(5-fluoro-1H-indol-3-yl)methyl]piperidin-4-yl}-9H-purin-2-yl]pyridin-3-ol]
13000 | 526 | 1500 | Nc1ncccc1CN1CCC(n2cnc3c(C4=CCOCC4)nc(-c4cncc(O)c4)nc32)CC1 [Compound 34, 5-[9-{1-[(2-aminopyridin-3-yl)methyl]piperidin-4-yl}-6-(3,6-dihydro-2H-pyran-4-yl)-9H-purin-2-yl]pyridin-3-ol]
2800 | 506 | 2480 | COc1ncccc1CN1CCC(n2cnc3c(C4=CCOCC4)nc(-c4cncc(O)c4)nc32)CC1 [Compound 36, 5-[6-(3,6-dihydro-2H-pyran-4-yl)-9-{1-[(2-methoxypyridin-3-yl)methyl]piperidin-4-yl}-9H-purin-2-yl]pyridin-3-ol]
190 | 152 | 543 | O=c1[nH]c2nc(-c3cccc(O)c3)nc(C3=CCOCC3)c2[nH]1 [Compound 38, 6-(3,6-dihydro-2H-pyran-4-yl)-2-(3-hydroxyphenyl)-7,9-dihydro-8H-purin-8-one]
1300 | 524 | 819 | O=c1[nH]c2nc(-c3cccc(CO)c3)nc(C3=CCOCC3)c2[nH]1 [Compound 39, 6-(3,6-dihydro-2H-pyran-4-yl)-2-[3-(hydroxymethyl)phenyl]-7,9-dihydro-8H-purin-8-one]
1400 | 540 | 3160 | Oc1cccc(-c2nc(C3=CCOCC3)c3ncn(C4CCNCC4)c3n2)c1 [Compound 40, 3-[6-(3,6-dihydro-2H-pyran-4-yl)-9-piperidin-4-yl-9H-purin-2-yl]phenol]
4800 | 628 | 2630 | Oc1cncc(-c2nc(C3=CCOCC3)c3ncn(C4CCNCC4)c3n2)c1 [Compound 44, 5-[6-(3,6-dihydro-2H-pyran-4-yl)-9-piperidin-4-yl-9H-purin-2-yl]pyridin-3-ol]
> 4000 | 1350 | 9000 | OCc1cccc(-c2nc(C3=CCOCC3)c3ncn(CCN4CCCCC4)c3n2)c1 [Compound 45, {3-[6-(3,6-dihydro-2H-pyran-4-yl)-9-(2-piperidin-1-ylethyl)-9H-purin-2-yl]phenyl}methanol]

From patent US20090192176A1, “1H-PYRAZOLO[3,4-D]PYRIMIDINE, PURINE, 7H-PURIN-8(9H)-ONE, 3H-[1,2,3]TRIAZOLO[4,5-D]PYRIMIDINE, AND THIENO[3,2-D]PYRIMIDINE COMPOUNDS, THEIR USE AS mTOR KINASE AND PI3 KINASE INHIBITORS, AND THEIR SYNTHESES” (Wyeth, priority 2008, published 2009)
